Converted amounts (≈) assume the structure as drawn.
What was measured:
[1] = tested on: S. pneumonia (SPNE 9912); test: MIC, agar dilution; assay type: cell-based; conditions: S. pneumonia 9912, overnight at 35° C.
Procedure: (§1) The in vitro MICs of test compounds were determined by a standard agar dilution method. A stock drug solution of each analog was prepared in the preferred solvent, usually DMSO:H2O (1:3). Serial 2-fold dilutions of each sample are made using 1.0 ml aliquots of sterile distilled water. To each 1.0 ml aliquot of drug was added 9 ml of molten Mueller Hinton agar medium. The drug-supplemented agar was mixed, poured into 15×100 mm petri dishes, and allowed to solidify and dry prior to inoculation.
(§2) Vials of each of the test organisms are maintained frozen in the vapor phase of a liquid nitrogen freezer. Test cultures are grown overnight at 35° C. on the medium appropriate for the organism. Colonies are harvested with a sterile swab, and cell suspensions are prepared in Trypticase Soy broth (TSB) to equal the turbidity of a 0.5 McFarland standard. A 1:20 dilution of each suspension was made in TSB. The plates containing the drug supplemented agar are inoculated with a 0.001 ml drop of the cell suspension using a Steers replicator, yielding approximately 10^4 to 10^5 cells per spot. The plates are incubated overnight at 35° C.
(§3) Following incubation the Minimum Inhibitory Concentration (MIC μg/ml), the lowest concentration of drug that inhibits visible growth of the organism, was read and recorded.

[2] = tested on: S. epidermidis (SEPI 30593); test: MIC, agar dilution; assay type: cell-based; conditions: Staphylococcus epidermidis, S. epidermidis 30593, overnight at 35° C.
Procedure: as §1, §2, §3

[3] = tested on: H. influenzae (HINF 31810); test: MIC, agar dilution; assay type: cell-based; conditions: Haemophilus influenzae, H. influenzae 31810, overnight at 35° C.
Procedure: as §1, §2, §3

[4] = tested on: S. pyogenes (SPYO 152); test: MIC, agar dilution; assay type: cell-based; conditions: Streptococcus pyogenes, S. pyogenes 152, overnight at 35° C.
Procedure: as §1, §2, §3

[5] = tested on: H. influenzae (HINF 30063); test: MIC, agar dilution; assay type: cell-based; conditions: Haemophilus influenzae, H. influenzae 30063, overnight at 35° C.
Procedure: as §1, §2, §3

[6] = tested on: S. aureus (SAUR 9213); test: MIC, agar dilution; assay type: cell-based; conditions: Staphylococcus aureus, S. aureus 9213, overnight at 35° C.
Procedure: as §1, §2, §3

[7] = tested on: E. Faecium (EFAE 12712); test: MIC, agar dilution; assay type: cell-based; conditions: Enterococcus faecium, E. Faecium 12712, overnight at 35° C.
Procedure: as §1, §2, §3

[8] = tested on: S. aureus (SAUR 31583); test: MIC, agar dilution; assay type: cell-based; conditions: Staphylococcus aureus, S. aureus 31583, overnight at 35° C.
Procedure: as §1, §2, §3

[9] = tested on: M. catarrhalis (MCAT 30607); test: MIC, agar dilution; assay type: cell-based; conditions: Moraxella catarrhalis, M. catarrhalis 30607, overnight at 35° C.
Procedure: as §1, §2, §3

[10] = tested on: E. Faecalis (EFAE 9217); test: MIC, agar dilution; assay type: cell-based; conditions: Enterococcus faecalis, E. Faecalis 9217, overnight at 35° C.
Procedure: as §1, §2, §3

| Structure (SMILES) | melting point | MIC [1] [µg/mL] | MIC [2] [µg/mL] | MIC [3] [µg/mL] | MIC [4] [µg/mL] | MIC [5] [µg/mL] | MIC [6] [µg/mL] | MIC [7] [µg/mL] | MIC [8] [µg/mL] | MIC [9] [µg/mL] | MIC [10] [µg/mL] |
| --- | --- | --- | --- | --- | --- | --- | --- | --- | --- | --- | --- |
| COc1ccc(CCCC(=O)N2CCN(c3ccc(N4C[C@H](CNC(C)=O)OC4=O)cc3F)CC2)cc1 [Example 41, N-{[(5S)-3-(3-Fluoro-4-{4-[4-(4-methoxyphenyl)butanoyl]piperazine-1-yl}phenyl)-2-oxo-1,3-oxazolidin-5-yl]methyl}acetamide] | 164 to 165 °C | – | – | – | – | – | – | – | – | – | – |
| CC(=O)NC[C@H]1CN(c2ccc(N3CCN(C(=O)COc4ccc(CN5CCN(C)CC5)cc4)CC3)c(F)c2)C(=O)O1 [Compound 24] | – | 0.125 (≈ 0.215 µM) | 2 (≈ 3.43 µM) | 16 (≈ 27.5 µM) | 0.25 (≈ 0.429 µM) | 32 (≈ 54.9 µM) | 4 (≈ 6.86 µM) | 2 (≈ 3.43 µM) | 16 (≈ 27.5 µM) | 2 (≈ 3.43 µM) | – |
| O=C(COc1ccc(CN2CCOCC2)cc1)N1CCN(c2ccc(N3C[C@H](CNC(=S)C4CC4)OC3=O)cc2F)CC1 [Compound 18] | – | 0.25 (≈ 0.409 µM) | 1 (≈ 1.63 µM) | 32 (≈ 52.3 µM) | 0.25 (≈ 0.409 µM) | 64 (≈ 105 µM) | 4 (≈ 6.54 µM) | 2 (≈ 3.27 µM) | 16 (≈ 26.2 µM) | 2 (≈ 3.27 µM) | 1 (≈ 1.63 µM) |
| CC(=O)NC[C@H]1CN(c2ccc(N3CCN(C(=O)CCC(=O)c4ccc(Cl)cc4)CC3)c(F)c2)C(=O)O1 [Example 49, N-{[(5S)-3-(4-{4-[4-(4-Chlorophenyl)-4-oxobutanoyl]-1-piperazinyl}-3-fluorophenyl)-2-oxo-1,3-oxazolidin-5-yl]methyl}acetamide] | 208 to 209 °C | – | – | – | – | – | – | – | – | – | – |
| CC(=O)NC[C@H]1CN(c2ccc(N3CCN(C(=O)COc4ccc(CN5CCOCC5)cc4)CC3)c(F)c2)C(=O)O1 [Compound 19] | – | 1 (≈ 1.76 µM) | 8 (≈ 14 µM) | 64 (≈ 112 µM) | 1 (≈ 1.76 µM) | > 64 | 16 (≈ 28.1 µM) | 8 (≈ 14 µM) | > 64 | 64 (≈ 112 µM) | 4 (≈ 7.02 µM) |
| CC(=O)NC[C@H]1CN(c2ccc(N3CCN(C(=O)COc4ccc(CN(C)C)cc4)CC3)c(F)c2)C(=O)O1 [Compound 14] | – | 0.5 (≈ 0.948 µM) | 8 (≈ 15.2 µM) | 32 (≈ 60.7 µM) | 0.5 (≈ 0.948 µM) | 64 (≈ 121 µM) | 16 (≈ 30.3 µM) | 8 (≈ 15.2 µM) | > 64 | 32 (≈ 60.7 µM) | 8 (≈ 15.2 µM) |
| CC(=O)NC[C@H]1CN(c2ccc(N3CCN(C(=O)CCC(=O)c4ccc(CNC(=O)CN(C)C)cc4)CC3)c(F)c2)C(=O)O1 [Example 22, N^1-(4-{4-[4-(4-{(5S)-5-[(Acetylamino)methyl]-2-oxo-1,3-oxazolidin-3-yl}-2-fluorophenyl)piperazin-1-yl]-4-oxobutanoyl}benzyl)-N^2,N^2-dimethylglycinamide] | 160 to 160.5 °C | – | – | – | – | – | – | – | – | – | – |
| CC(=O)NC[C@H]1CN(c2ccc(N3CCN(C(=O)CN4C(=O)c5ccc(N)cc5C4=O)CC3)c(F)c2)C(=O)O1 [Example 70, N-{[(5S)-3-(4-{4-[(5-Amino-1,3-dioxo-1,3-dihydro-2H-isoindol-2-yl)acetyl]piperazin-1-yl}-3-fluorophenyl)-2-oxo-1,3-oxazolidin-5-yl]methyl}acetamide] | 241 to 243 °C (dec.) | – | – | – | – | – | – | – | – | – | – |
